Columns and labels:
[1] = test system: adult rat dorsal root ganglion (DRG) cultures; test: Neurite outgrowth in dissociated adult rat DRG cultures; assay type: cell-based; conditions: 72 h
Description: Given that there are currently no small molecule clinical-stage treatments routinely used to stimulate neuronal regeneration such as for injury to peripheral nerves, the spinal cord or optic nerves, we explored the potential of PI3Kα activation in this context.
Dorsal root ganglion (DRG) neurons were isolated from adult male (>250 g) Wistar rats as described, with DRGs from each rat cultured separately (Rayner, M. L. D. et al. Anatomical record 301, 1628-1637 (2018)). Following culling via schedule 1 (rising concentration of CO2), the spinal column was removed and stored in PBS on ice. Cord tissue was removed to expose the DRG and roots in the intervertebral foramen and the DRGS removed with forceps and scalpel under a dissecting microscope (Olympus SZ40). DRGs were manually cleaned by removal of roots, capsule and capillaries with forceps and then placed in DMEM supplemented with P/S. DRGs were treated with 0.125% collagenase type IV solution at 37° C. for 90 min, and then mechanically dissociated by trituration using a 1 ml pipette. The collagenase solution was removed by 2 rounds of centrifugation in complete DMEM (DMEM with 1% P/S and 10% FBS) at 400×g for 5 min, followed by resuspension of the DRG cell pellet in complete DMEM supplemented with 0.01 mM cytosine arabinoside. DRGs were plated in 75-cm^2 flasks coated with 0.1 mg/ml poly-D-lysine and incubated at 37° C., 5% CO2. […]

[2] = test system: PI3Kα-WT MEFs; test: Cell number by crystal violet staining in MEFs; assay type: cell-based, mouse; conditions: 72 h
Procedure: MEFs were seeded at 5000 cells per well in 96-well plates in DMEM supplemented with 10% FBS and 1% P/S, and allowed to attach overnight. The next day, cells were serum-starved for 5 h prior to compound addition in fresh serum-free DMEM. After different time points, cells were rapidly washed with distilled H2O before fixed and stained in a solution of 0.5% crystal violet (Sigma-Aldrich cat #C0775) in 20% methanol (v:v) as described (Feoktistova, M. et al. Cold Spring Harb Protoc 2016, pdb prot087379 (2016). Briefly, after 20 min incubation at room temperature on a rocking platform, fixed and stained cells were washed 3 times with distilled H2O and plates air-dried overnight. 200 μl methanol was next added to each well and the plates were incubated at room temperature for 20 min on a bench rocker, followed by measurement of optical density at 570 with a plate reader.

Structure (SMILES): CCN1CCN(c2ccc(Nc3cc(Nc4cccc5c4N(C(C)=O)CC5)ccn3)cc2)CC1 [Example 1938]
- neurite outgrowth ([1]; dose-dependent): significantly increased neurite outgrowth
- total length of neurites ([1]; higher 1938 concentrations): doubling the total length of neurites
- cell number (crystal violet staining) [2]: an increase in cell number

Reference: patent publication US20250263404A1, “AMINOPYRIDINES AS ACTIVATORS OF PI3 KINASE” (UCL Business Ltd, priority 2021, published 2025)
